Source: patent publication US9883997B2, “Cosmetic compositions with tricyclodecane amides” (Conopco, Inc., priority 2013, dated 2018)
Read-outs that look alike come from different tables or passages of the source. Blank lines part the entries; values can stand above or below the molecule they belong to.

How the values were obtained:
[1] = cited from earlier work
[2] = Precursor cosmetic compositions evaluated for crystals content, i.e. solubility of solid agent in the liquid agent (Example 29); type: physicochemical
Description: The following precursor cosmetic compositions were prepared and evaluated for crystals content, i.e. solubility of solid agent in the liquid agent.
The composition is heated to a temperature above the melting point of the highest melting compound, then allowed to cool to room temperature. […] In the case of end use cosmetic compositions visualization of the crystals of solid agent was done by comparing a sample with and without tricyclodecane amide and observing the formation of crystals, if any, under the optical microscope fitted with cross-polarizers at a magnification of 10× or higher.

[3] = liquid cosmetic agents, Table 2
[4] = 2-HEU (16.6%) in OMC (50%), [S]/[L] 0.3, amide (33.3%), 24 hours
[5] = 12HSA (16.6%) in OMC (50%), [S]/[L] 0.3, amide or comparator (33%), 24 hours
[6] = Cholesterol (16.6%) in OMC (50%), [S]/[L] 0.3, amide or comparator (33.3%), 24 hours
[7] = Cholesterol (18%) in retinol proprionate (50%), [S]/[L] 0.4, amide or comparator (32%), observation at 12 hours
[8] = Climbazole (28.5%) in OMC (42.8%), [S]/[L] 0.7, amide (28.5%), 24 hours
[9] = Climbazole (28.5%) in Pelemol GTIS (42.8%), [S]/[L] 0.7, amide (28.5%), 24 hours
[10] = Niacinamide (9.1%) in PPG425 (54.5%), [S]/[L] 0.2, amide (36.4%), observation at 12 hours
[11] = Niacinamide (10%) in Glucam P-20 (55%), [S]/[L] 0.2, amide (35%), 24 hours
[12] = retinyl palmitate (28.5%) in OMC (42.8%), [S]/[L] 0.7, amide or comparator (28.5%), 24 hours

Molecule: Oc1cc(Cl)ccc1Oc1ccc(Cl)cc1Cl [Triclosan]
Log Po/w ([1]; solid cosmetic agents, Table 1): 5.34

Molecule: NC(=O)c1cccnc1 [Niacinamide]
Appearance after cooling - observation at 24 hours, except as noted ([2]; Niacinamide (10%) in Glucam P-20 (90%), [S]/[L] 0.1, no tricyclodecaneamide, 24 hours): crystal + liquid
Appearance after cooling - observation at 24 hours, except as noted ([2]; Niacinamide (14.5%) in PPG425 (85.5%), [S]/[L] 0.2, no tricyclodecaneamide, observation at 12 hours): opaque solid
Log Po/w ([1]; solid cosmetic agents, Table 1): −0.37

Molecule: CCCCC(CC)COC(=O)C(C#N)=C(c1ccccc1)c1ccccc1 (stereo not shown) [octocrylene]
Log Po/w [1, 3]: 6.89

Molecule: CC(C)CCC[C@@H](C)[C@H]1CC[C@H]2[C@@H]3CC=C4C[C@@H](O)CC[C@]4(C)[C@H]3CC[C@]12C [cholesterol]
Appearance after cooling - observation at 24 hours, except as noted ([2]; Cholesterol (16%) in OMC (84%), [S]/[L] 0.2, no tricyclodecaneamide, 24 hours): crystal + liquid
Appearance after cooling - observation at 24 hours, except as noted ([2]; Cholesterol (20%) in conjugated linoleic acid (80%), [S]/[L] 0.2, no tricyclodecaneamide, 24 hours): crystals + liquid
Appearance after cooling - observation at 24 hours, except as noted ([2]; Cholesterol (20%) in retinol proprionate (80%), [S]/[L] 0.3, no tricyclodecaneamide, observation at 12 hours): opaque solid
Log Po/w ([1]; solid cosmetic agents, Table 1): 9.62

Molecule: CC1CCCN(C(=O)C23CC4CC(CC(C4)C2)C3)C1 (stereo not shown) [Compound C14, Methanone, (3-methyl-1-piperidinyl)tricyclo[3.3.1.1^3,7]dec-1-yl-]
Appearance after cooling - observation at 24 hours, except as noted [2, 4]: clear liquid
Appearance after cooling - observation at 24 hours, except as noted ([2]; 2-HEU (42%) in OMC (33%), [S]/[L] 1.3, amide (25%), 24 hours): crystal + liquid
Appearance after cooling - observation at 24 hours, except as noted [2, 5]: translucent gel
Appearance after cooling - observation at 24 hours, except as noted ([2]; 12HSA (16.6%) in Pelemol TISC (50%), [S]/[L] 0.3, amide (33%), 24 hours): translucent gel
Appearance after cooling - observation at 24 hours, except as noted ([2]; Avobenzone (28.5%) in Propylene glycol (42.8%), [S]/[L] 0.7, amide (28.5%), 24 hours): Crystal + liquid
Appearance after cooling - observation at 24 hours, except as noted ([2]; Cholesterol (10%) in conjugated linoleic acid (45%), [S]/[L] 0.2, amide (45%), 24 hours): clear liquid
Appearance after cooling - observation at 24 hours, except as noted [2, 6]: Clear liquid
Appearance after cooling - observation at 24 hours, except as noted [2, 7]: clear liquid
Appearance after cooling - observation at 24 hours, except as noted ([2]; Cholesterol (35%) in OMC (32%), [S]/[L] 1.1, amide (33%), 24 hours): crystal + liquid
Appearance after cooling - observation at 24 hours, except as noted ([2]; Cholesterol (40%) in conjugated linoleic acid (30%), [S]/[L] 1.3, amide (30%), 24 hours): crystals + liquid
Appearance after cooling - observation at 24 hours, except as noted ([2]; Cholesterol (45%) in retinol proprionate (35%), [S]/[L] 1.3, amide (20%), observation at 12 hours): opaque solid
Appearance after cooling - observation at 24 hours, except as noted [2, 8]: clear liquid
Appearance after cooling - observation at 24 hours, except as noted ([2]; Climbazole (28.5%) in PPG425 (42.8%), [S]/[L] 0.7, amide (28.5%), 24 hours): clear liquid
Appearance after cooling - observation at 24 hours, except as noted [2, 9]: clear liquid
Appearance after cooling - observation at 24 hours, except as noted ([2]; Climbazole (45%) in PPG425 (35%), [S]/[L] 1.3, amide (20%), 24 hours): crystals + liquid
Appearance after cooling - observation at 24 hours, except as noted ([2]; Climbazole (50%) in Pelemol GTIS (25%), [S]/[L] 2, amide (25%), 24 hours): crystal + liquid
Appearance after cooling - observation at 24 hours, except as noted ([2]; Climbazole (55%) in OMC (22.5%), [S]/[L] 2.4, amide (22.5%), 24 hours): crystal + liquid
Appearance after cooling - observation at 24 hours, except as noted ([2]; Methyl Paraben (40%) in PPG-425 (40%), [S]/[L] 1, amide (20%), 24 hours): clear liquid
Appearance after cooling - observation at 24 hours, except as noted ([2]; Methyl Paraben (60%) in PPG-425 (25%), [S]/[L] 2, amide (15%), 24 hours): crystal + liquid
Appearance after cooling - observation at 24 hours, except as noted [2, 10]: clear liquid
Appearance after cooling - observation at 24 hours, except as noted [2, 11]: clear liquid
Appearance after cooling - observation at 24 hours, except as noted ([2]; Niacinamide (35%) in Glucam P-20 (25%), [S]/[L] 1.4, amide (40%), 24 hours): crystal + liquid
Appearance after cooling - observation at 24 hours, except as noted ([2]; Niacinamide (35%) in PPG425 (32.5%), [S]/[L] 1.1, amide (32.5%), observation at 12 hours): opaque solid
Appearance after cooling - observation at 24 hours, except as noted ([2]; Salicylic acid (15%) in conjugated linoleic acid (35%), [S]/[L] .4, amide (50%), 24 hours): clear liquid
Appearance after cooling - observation at 24 hours, except as noted ([2]; Salicylic acid (18%) in OMC (50%), [S]/[L] 0.4, amide (32%), 24 hours): clear liquid
Appearance after cooling - observation at 24 hours, except as noted ([2]; Salicylic acid (42%) in conjugated linoleic acid (33%), [S]/[L] 1.3, amide (25%), 24 hours): opaque solid
Appearance after cooling - observation at 24 hours, except as noted ([2]; Salicylic acid (60%) in OMC (25%), [S]/[L] 2.4, amide (15%), 24 hours): crystal + liquid
Appearance after cooling - observation at 24 hours, except as noted [2, 12]: clear liquid

Molecule: CC(C)CCCCCCCCCCCCCCC(=O)OC(C)C [isopropyl isostearate]
Log Po/w [1, 3]: 9.14

Molecule: Conjugated linoleic acid
Log Po/w [1, 3]: >6

Molecule: CC(C)(C)C(=O)C(Oc1ccc(Cl)cc1)n1ccnc1 (stereo not shown) [Climbazole]
Appearance after cooling - observation at 24 hours, except as noted ([2]; Climbazole (10%) in Pelemol GTIS (90%), [S]/[L] 0.1, no tricyclodecaneamide, 24 hours): crystal + liquid
Appearance after cooling - observation at 24 hours, except as noted ([2]; Climbazole (30%) in OMC (70%), [S]/[L] 0.4, no tricyclodecaneamide, 24 hours): crystal + liquid
Appearance after cooling - observation at 24 hours, except as noted ([2]; Climbazole (40%) in PPG425 (60%), [S]/[L] 0.7, no tricyclodecaneamide, 24 hours): crystals + liquid
Log Po/w ([1]; solid cosmetic agents, Table 1): 3.49

Molecule: CCCCC(CC)COC(=O)C=Cc1ccc(OC)cc1 (stereo not shown) [Octylmethoxycinnamate]
Log Po/w [1, 3]: 5.92

Molecule: CC(O)CO (stereo not shown) [Propylene glycol]
Log P ([1]; liquid agent named in Table 3): P~−1.3)

Molecule: O=C(N1CCCC2CCCCC21)C12CC3CC(CC(C3)C1)C2 (stereo not shown) [Compound C10, Methanone, (decahydroquinolinyl)tricyclo[3.3.1.1^3,7]dec-1-yl-]
Appearance after cooling - observation at 24 hours, except as noted [2, 4]: clear liquid
Appearance after cooling - observation at 24 hours, except as noted [2, 5]: translucent gel
Appearance after cooling - observation at 24 hours, except as noted [2, 6]: Clear liquid
Appearance after cooling - observation at 24 hours, except as noted [2, 8]: clear liquid
Appearance after cooling - observation at 24 hours, except as noted [2, 9]: clear liquid
Appearance after cooling - observation at 24 hours, except as noted [2, 10]: clear liquid
Appearance after cooling - observation at 24 hours, except as noted [2, 11]: clear liquid

Molecule: O=C(O)CO [Glycolic acid]
Log Po/w ([1]; solid cosmetic agents, Table 1): −1.2

Molecule: CCCCCCCCCCCCCC(=O)OC(C)C [Isopropyl myristate]
Log Po/w [1, 3]: 7.25

More lines, main results first:

Appearance after cooling - observation at 24 hours, except as noted ([2]; 2-HEU (24.9%) in OMC (75.1%), [S]/[L] 0.3, no tricyclodecaneamide, 24 hours): crystal + liquid
Molecule: NC(=O)NCCO [2-hydroxyethyl urea]
Log Po/w ([1]; solid cosmetic agents, Table 1): −0.86

Appearance after cooling - observation at 24 hours, except as noted ([2]; Avobenzone (45%) in OMC (27.5%), [S]/[L] 2, straight chain comparator (27.5%), 24 hours): crystals + liquid
Molecule: CCCCCCCCCCCCCC(=O)NC1CCCC(C)C1 (stereo not shown) [tetradecanoic acid (3 methyl-cyclohexyl)-amide, reference compound]

Appearance after cooling - observation at 24 hours, except as noted [2, 4]: Translucent gel
Appearance after cooling - observation at 24 hours, except as noted ([2]; Avobenzone (28%) in OMC (40%), [S]/[L] 0.7, amide (32%), 24 hours): Clear liquid
Appearance after cooling - observation at 24 hours, except as noted ([2]; Avobenzone (45%) in OMC (27.5%), [S]/[L] 1.6, amide (27.5%), 24 hours): crystals + liquid
Appearance after cooling - observation at 24 hours, except as noted [2, 6]: Translucent gel
Appearance after cooling - observation at 24 hours, except as noted [2, 8]: clear liquid
Appearance after cooling - observation at 24 hours, except as noted [2, 9]: clear liquid
Appearance after cooling - observation at 24 hours, except as noted [2, 11]: clear liquid
Molecule: CC(C)(C)CC(C)(C)NC(=O)C12CC3CC(CC(C3)C1)C2 [Compound C21, Methanone, (1,1-dimethyl-3,3-dimethylbutylaminyl) tricyclo[3.3.1.1^3,7]dec-1-yl-]

Appearance after cooling - observation at 24 hours, except as noted [2, 5]: opaque solid
Appearance after cooling - observation at 24 hours, except as noted [2, 6]: crystal + liquid
Appearance after cooling - observation at 24 hours, except as noted [2, 7]: opaque solid
Appearance after cooling - observation at 24 hours, except as noted ([2]; Climbazole (16.6%) in OMC (50%), [S]/[L] 0.7, straight chain comparator (33.3%), 24 hours): crystal + liquid
Appearance after cooling - observation at 24 hours, except as noted [2, 12]: crystal + liquid
Molecule: CCCCCCCCCCCCCCCCCC(N)=O [octadecanamide, reference compound]

Appearance after cooling - observation at 24 hours, except as noted [2, 5]: opaque solid
Molecule: NC(=O)c1ccccc1C(N)=O [phthalamide, reference compound]
